In patent US11993574B2, “Pyrazole and imidazole compounds for inhibition of IL-17 and RORgamma” (REATA PHARMACEUTICALS, INC., priority 2018, dated 2024):

Assays:
Assay type in all cases: cell-based
IL-17A = assay: IL-17 release from differentiated primary human T-cells (IL-17A HTRF assay); conditions: primary human CD4+ T cells differentiated into Th17 cells, 45-hour incubation, IL-17A in supernatant; read-out: hIL17 IC50
Summary of the method: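 Primary human CD4+ T cells (~2×10^5/well) given compound (2–500 or 4–1000 nM, 0.1% DMSO), CD3/CD28-activated and Th17-differentiated (TGF-β, IL-6, IL-23, IL-1β) for 45 h at 37° C. Supernatant IL-17A by HTRF against standard curve, normalized to vehicle; IC50 by variable-slope regression, with parallel CyQuant viability.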

[1] = target: T1, Human RAR-related Orphan Receptor Gamma (RORγ) (Homo sapiens, UniProt P51449); assay: RORγ assay (GAL4-RORγ hybrid luciferase reporter, Indigo Biosciences); conditions: inverse-agonist activity, GAL4-RORγ reporter cells, 23 hours
T1 sequence (P51449 269-508 limits assumed): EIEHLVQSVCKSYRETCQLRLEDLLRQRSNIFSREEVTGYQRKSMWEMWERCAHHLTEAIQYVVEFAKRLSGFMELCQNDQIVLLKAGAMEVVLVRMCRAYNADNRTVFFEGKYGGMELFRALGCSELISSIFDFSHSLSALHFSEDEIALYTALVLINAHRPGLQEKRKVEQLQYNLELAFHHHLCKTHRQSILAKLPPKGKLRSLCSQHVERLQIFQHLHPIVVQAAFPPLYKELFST
Summary of the method: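 […]engineered human reporter cell line expressing GAL4-DBD/RORγ-LBD hybrid with GAL4-UAS luciferase; constitutive activity measured as inverse agonism. Cells treated with compound (7.8-2000 nM) for 23 h at 37 °C; luminescence normalized to DMSO, IC50 by variable-slope fit, with parallel viability readout to flag non-specific inhibition.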

[2] = test system: Nrf2 transcription factor; assay: AREc32 luciferase reporter assay; conditions: Homo sapiens; AREc32 cells, 19 hours; concentration required to increase GST ARE luciferase reporter activity by 2-fold; read-out: NRF2 ARE 2-Fold (EC2×)
Summary of the method: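 AREc32 cells (MCF-7 with firefly luciferase under eight rat GSTA2 ARE copies) treated 19 h with compound (0.4-200 nM or 3.9-2000 nM) in triplicate. Luminescence normalized to DMSO as fold-induction, capped at 50-fold. EC2× = concentration giving 2-fold reporter increase, interpolated from variable-slope fit.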

COc1ccc(-n2nc(-c3ccccc3)c3c2[C@]2(C)C=C(C#N)C(=O)[C@H](C)[C@H]2CC3)cc1 [T14]
IC50 (IL-17A): 57 nM | IC50 [1]: 60 nM | EC (2-fold) [2]: 0.147 µM

Cc1ccc(-n2nc(-c3ccccc3)c3c2[C@]2(C)C=C(C#N)C(=O)[C@H](C)[C@H]2CC3)cn1 [T32]
IC50 (IL-17A): 170 nM | IC50 [1]: 124 nM | EC (2-fold) [2]: 0.258 µM

CC(C)c1cccc(-c2nn(-c3ccc(-c4ccccc4)cc3)c3c2CC[C@@H]2[C@@H](C)C(=O)C(C#N)=C[C@@]32C)c1 [T71]
IC50 (IL-17A): 9 nM | IC50 [1]: 294 nM | EC (2-fold) [2]: 0.257 µM

C[C@H]1C(=O)C(C#N)=C[C@@]2(C)c3nn(-c4cccc5ccccc45)c(-c4ccccc4)c3CC[C@H]12 [T24]
IC50 (IL-17A): 30 nM | IC50 [1]: 284 nM | EC (2-fold) [2]: 0.827 µM

C[C@H]1C(=O)C(C#N)=C[C@@]2(C)c3c(c(Nc4ccccc4)nn3-c3ccc(-c4ccccc4)cc3)CC[C@H]12 [T100]
IC50 (IL-17A): 16 nM | IC50 [1]: 110 nM | EC (2-fold) [2]: 0.319 µM

C[C@H]1C(=O)C(C#N)=C[C@@]2(C)c3c(c(-c4ccccc4)nn3-c3ccc(-c4cccc(F)c4)cc3)CC[C@H]12 [T40]
IC50 (IL-17A): 23 nM | IC50 [1]: 80 nM | EC (2-fold) [2]: 0.238 µM

C[C@H]1C(=O)C(C#N)=C[C@@]2(C)c3nn(-c4ccccc4)c(-c4ccccc4)c3CC[C@H]12 [T115]
IC50 (IL-17A): 287 nM | IC50 [1]: 77 nM | EC (2-fold) [2]: 0.466 µM

CC(C)c1ncc(-c2nc3c(n2-c2cccc(F)c2)CC[C@@H]2[C@@H](C)C(=O)C(C#N)=C[C@@]32C)cn1 [T131]
IC50 (IL-17A): 138 nM | IC50 [1]: 170 nM | EC (2-fold) [2]: 0.767 µM

C[C@H]1C(=O)C(C#N)=C[C@@]2(C)c3c(c(-c4ccccc4)nn3-c3ccc(-c4ccccc4CO)cc3)CC[C@H]12 [T43]
IC50 (IL-17A): 43 nM | IC50 [1]: 53 nM | EC (2-fold) [2]: 0.174 µM

Cc1nc(-c2ccc(-n3nc(-c4cccnc4)c4c3[C@]3(C)C=C(C#N)C(=O)[C@H](C)[C@H]3CC4)cc2)no1 [T184]
IC50 (IL-17A): 76 nM | IC50 [1]: 116 nM | EC (2-fold) [2]: 0.398 µM

Cc1ccc(-c2ccc(-n3nc(-c4ccccc4)c4c3[C@]3(C)C=C(C#N)C(=O)[C@H](C)[C@H]3CC4)cc2)cc1 [T41]
IC50 (IL-17A): 25 nM | IC50 [1]: 83 nM | EC (2-fold) [2]: 0.249 µM

C[C@H]1C(=O)C(C#N)=C[C@@]2(C)c3nc(-c4cccc5ncccc45)n(-c4cccc(F)c4)c3CC[C@H]12 [T136]
IC50 (IL-17A): 144 nM | IC50 [1]: 189 nM | EC (2-fold) [2]: 0.753 µM

C[C@H]1C(=O)C(C#N)=C[C@@]2(C)c3c(c(-c4ccccc4)nn3-c3ccc(-c4ccccc4)cn3)CC[C@H]12 [T97]
IC50 (IL-17A): 38 nM | IC50 [1]: 107 nM | EC (2-fold) [2]: 0.597 µM

Cc1cc(-c2ccc(-n3nc(-c4ccncn4)c4c3[C@]3(C)C=C(C#N)C(=O)[C@H](C)[C@H]3CC4)cc2)cnn1 [T176]
IC50 (IL-17A): 129 nM | IC50 [1]: 120 nM | EC (2-fold) [2]: 0.979 µM

Cc1ccc(-n2nc(-c3ccccc3)c3c2[C@]2(C)C=C(C#N)C(=O)[C@H](C)[C@H]2CC3)nc1 [T31]
IC50 (IL-17A): 100 nM | IC50 [1]: 91 nM | EC (2-fold) [2]: 0.298 µM

CC(C)c1ccc(-c2nc3c(n2C(C)C)CC[C@@H]2[C@@H](C)C(=O)C(C#N)=C[C@@]32C)cc1 [T162]
IC50 (IL-17A): 137 nM | IC50 [1]: 141 nM | EC (2-fold) [2]: 1.12 µM

Cc1cc(-c2ccc(-n3nc(-c4ccccc4F)c4c3[C@]3(C)C=C(C#N)C(=O)[C@H](C)[C@H]3CC4)cc2)cnn1 [T83]
IC50 (IL-17A): 20 nM | IC50 [1]: 33 nM | EC (2-fold) [2]: 0.139 µM

Cc1cc(-c2ccc(-n3nc(-c4nc(C)no4)c4c3[C@]3(C)C=C(C#N)C(=O)[C@H](C)[C@H]3CC4)cc2)cnn1 [T108]
IC50 (IL-17A): 223 nM | IC50 [1]: 154 nM | EC (2-fold) [2]: 1.25 µM

C[C@H]1C(=O)C(C#N)=C[C@@]2(C)c3c(c(-c4ccccc4)nn3-c3ccc(-c4ccccc4)cc3)CC[C@H]12 [T21]
IC50 (IL-17A): 19 nM | IC50 [1]: 80 nM | EC (2-fold) [2]: 0.161 µM

C[C@H]1C(=O)C(C#N)=C[C@@]2(C)c3c(c(-c4ccccc4F)nn3-c3nc(-c4ccccc4)cs3)CC[C@H]12 [T87]
IC50 (IL-17A): 27 nM | IC50 [1]: 685 nM | EC (2-fold) [2]: 1.26 µM

C[C@H]1C(=O)C(C#N)=C[C@@]2(C)c3c(c(-c4ccc(F)cc4)nn3-c3ccc(-c4cccnn4)cc3)CC[C@H]12 [T178]
IC50 (IL-17A): 31 nM | IC50 [1]: 64 nM | EC (2-fold) [2]: 0.342 µM

CC(C)c1ccc(-c2nc3c(n2C)CC[C@@H]2[C@@H](C)C(=O)C(C#N)=C[C@@]32C)cc1 [T163]
IC50 (IL-17A): 255 nM | IC50 [1]: 152 nM | EC (2-fold) [2]: 1.13 µM

C[C@H]1C(=O)C(C#N)=C[C@@]2(C)c3nc(-c4cccc(-c5ccncc5)c4)n(-c4cccc(F)c4)c3CC[C@H]12 [T146]
IC50 (IL-17A): 70 nM | IC50 [1]: 106 nM | EC (2-fold) [2]: 0.423 µM

Cc1noc(C)c1-c1cccc(-c2nc3c(n2-c2cccc(F)c2)CC[C@@H]2[C@@H](C)C(=O)C(C#N)=C[C@@]32C)c1 [T150]
IC50 (IL-17A): 104 nM | IC50 [1]: 135 nM | EC (2-fold) [2]: 0.488 µM

CC(C)c1ccc(-c2nc3c(n2Cc2ccc(F)cc2)CC[C@@H]2[C@@H](C)C(=O)C(C#N)=C[C@@]32C)cc1 [T167]
IC50 (IL-17A): 53 nM | IC50 [1]: 245 nM | EC (2-fold) [2]: 1.11 µM

C[C@H]1C(=O)C(C#N)=C[C@@]2(C)c3c(c(-c4cccnc4)nn3-c3ccc(-c4ccccc4)cc3)CC[C@H]12 [T68]
IC50 (IL-17A): 27 nM | IC50 [1]: 36 nM | EC (2-fold) [2]: 0.248 µM

CC(C)c1ccc(-c2nc3c(n2CCOCc2ccccc2)CC[C@@H]2[C@@H](C)C(=O)C(C#N)=C[C@@]32C)cc1 [T165]
IC50 (IL-17A): 211 nM | IC50 [1]: 471 nM | EC (2-fold) [2]: > 2 µM

C[C@H]1C(=O)C(C#N)=C[C@@]2(C)c3c(c(-c4ccncn4)nn3-c3ccc(-c4cccc(CF)c4)cn3)CC[C@H]12 [T61]
IC50 (IL-17A): 115 nM | IC50 [1]: 136 nM | EC (2-fold) [2]: 0.251 µM

Cc1ccccc1-n1nc2c(c1-c1ccccc1)CC[C@@H]1[C@@H](C)C(=O)C(C#N)=C[C@@]21C [T18]
IC50 (IL-17A): 182 nM | IC50 [1]: 114 nM | EC (2-fold) [2]: 0.741 µM

C[C@H]1C(=O)C(C#N)=C[C@@]2(C)c3nc(-c4cccc(-c5cnn(C)c5)c4)n(-c4cccc(F)c4)c3CC[C@H]12 [T149]
IC50 (IL-17A): 129 nM | IC50 [1]: 159 nM | EC (2-fold) [2]: 0.687 µM

C[C@H]1C(=O)C(C#N)=C[C@@]2(C)c3c(c(-c4ccccc4)nn3-c3ccc(Cl)c(Cl)c3)CC[C@H]12 [T10]
IC50 (IL-17A): 78 nM | IC50 [1]: 88 nM | EC (2-fold) [2]: 0.26 µM

C[C@H]1C(=O)C(C#N)=C[C@@]2(C)c3c(c(-c4ccc(F)cc4)nn3-c3ccc(-c4ccnc(CF)c4)cc3)CC[C@H]12 [T181]
IC50 (IL-17A): 24 nM | IC50 [1]: 60 nM | EC (2-fold) [2]: 0.25 µM

C[C@H]1C(=O)C(C#N)=C[C@@]2(C)c3c(c(C4CCCCC4)nn3-c3ccc(-c4ccccc4)cc3)CC[C@H]12 [T76]
IC50 (IL-17A): 30 nM | IC50 [1]: 73 nM | EC (2-fold) [2]: 0.465 µM

C[C@H]1C(=O)C(C#N)=C[C@@]2(C)c3nc(-c4ccnc5ccccc45)n(-c4cccc(F)c4)c3CC[C@H]12 [T135]
IC50 (IL-17A): 160 nM | IC50 [1]: 141 nM | EC (2-fold) [2]: 0.896 µM

C[C@H]1C(=O)C(C#N)=C[C@@]2(C)c3nc(-c4ccnc(N5CCOCC5)c4)n(-c4cccc(F)c4)c3CC[C@H]12 [T139]
IC50 (IL-17A): 128 nM | IC50 [1]: 112 nM | EC (2-fold) [2]: 0.66 µM

C[C@H]1C(=O)C(C#N)=C[C@@]2(C)c3c(c(-c4ccccc4F)nn3-c3nc4ccccc4n3C)CC[C@H]12 [T90]
IC50 (IL-17A): 57 nM | IC50 [1]: 135 nM | EC (2-fold) [2]: 1.31 µM

C[C@H]1C(=O)C(C#N)=C[C@@]2(C)c3c(c(-c4cccc(F)c4)nn3-c3ccnc4ccccc34)CC[C@H]12 [T104]
IC50 (IL-17A): 62 nM | IC50 [1]: 208 nM | EC (2-fold) [2]: 0.638 µM

C[C@H]1C(=O)C(C#N)=C[C@@]2(C)c3nn(-c4ccc(-c5ccccc5)cc4)c(-c4ccncn4)c3CC[C@H]12 [T120]
IC50 (IL-17A): 54 nM | IC50 [1]: 92 nM | EC (2-fold) [2]: 0.908 µM

C[C@H]1C(=O)C(C#N)=C[C@@]2(C)c3nc(-c4ccnc5ccccc45)n(-c4cccnc4)c3CC[C@H]12 [T154]
IC50 (IL-17A): 415 nM | IC50 [1]: 572 nM | EC (2-fold) [2]: 1.97 µM

CC(C)c1ccc(-c2nc3c(n2Cc2ccccc2F)CC[C@@H]2[C@@H](C)C(=O)C(C#N)=C[C@@]32C)cc1 [T168]
IC50 (IL-17A): 43 nM | IC50 [1]: 296 nM | EC (2-fold) [2]: 1.29 µM

C[C@H]1C(=O)C(C#N)=C[C@@]2(C)c3c(c(C4CC4)nn3-c3ccc(-c4ccccc4)cc3)CC[C@H]12 [T75]
IC50 (IL-17A): 130 nM | IC50 [1]: 68 nM | EC (2-fold) [2]: 0.248 µM

C[C@H]1C(=O)C(C#N)=C[C@@]2(C)c3c(c(-c4ccncn4)nn3-c3ccc(C(F)(F)F)cn3)CC[C@H]12 [T63]
IC50 (IL-17A): 151 nM | IC50 [1]: 201 nM | EC (2-fold) [2]: 0.725 µM
